Like-named read-outs stand apart in the source and are kept apart here.
Experiments:
[1] = cited from earlier work
[2] = parameters: method as in doi:10.1016/j.synthmet.2008.06.007; settings: TTF column, cited from earlier work
Aliivibrio fischeri = test: Microtox acute toxicity test; format: cell-based; settings: tested at 1, 10 and 100 µM
Text: All studied compounds were subjected to a Microtox acute toxicity test. The test is based on bioluminescent Aliivibrio fischeri bacteria, which are very sensitive to the presence of toxic substances. Changes in the toxicity of the environment surrounding the bacterium influence its respiratory processes and translate into the emitted bioluminescence intensity. Therefore, in contact with a toxic substance at a specific concentration, a linear decrease in luminescence is observed. Dimethylsulfoxide was used as a solubilizer of studied compounds in amounts not exceeding 1% v/v. To determine the effect of the solvent alone, 1% DMSO solution in water was also tested.
The acute toxicity of the tested curcumionoids was investigated on a Modern Water Microtox Model 500 apparatus equipped with Modern Water MicrotoxOmni 4.2 software, according to the 81.9% screening test procedure provided by the manufacturer (Modern Water, London, UK). All the reagents and solutions (Microtox Acute Reagent, Microtox Diluent, and Microtox Osmotic Adjusting Solution) were purchased from Tigret (Warsaw, Poland). Solutions of the tested compounds were prepared using DMSO and deionized water. […] Each compound was tested at three final concentrations (1 µM, 10 µM, and 100 µM) and at two time points: 5 min and 15 min. The change in the bacterial bioluminescence was monitored after the addition of the sample solution and compared to the negative control.

P. aeruginosa = settings: 50 µg/mL; 670 nm; 97.65 J/cm^2; 5 min; cited from earlier work
S. aureus = settings: cited from earlier work

In the case of `[Zn+2].c1ccc2c(c1)-c1nc-2nc2[n-]c(nc3nc([n-]c4nc(n1)-c1ccccc1-4)-c1ccccc1-3)c1ccccc21` [ZnPc, zinc(II) phthalocyanine], the “10^−5 Φp (photodecomposition quantum yield)” value ([1]; DMF) is listed as 1.02 [38] 10^−5, the “ΦP (photodecomposition quantum yield)” value ([1]; DMF) is listed as 10.2 × 10^−6 and the “10^−5 Φp (photodecomposition quantum yield)” value ([1]; DMSO) is listed as 0.35 [39] 10^−5. The “ΦP (photodecomposition quantum yield)” value ([1]; DMSO) was 3.5 × 10^−6, the “singlet oxygen quantum yield” value ([2]; DMF) was 0.56 [39] and the “singlet oxygen quantum yield” value ([2]; DMSO) was 0.67 [39].

In the case of `COc1cc(C=CC2=CC(C=Cc3ccc(O)c(OC)c3)=[O+][B-](F)(F)O2)ccc1O` [curcumin–BF2 complex, reference compound], the “acute toxicity / ecotoxicity verdict” value (Aliivibrio fischeri) is reported as “toxic at every concentration tested”.

For `Cc1cc2nc3ccc(N(C)C)cc3[s+]c2cc1N.[Cl-]` [Toluidine blue], the “Efficiency (log reduction)” value (P. aeruginosa) is listed as 2.36 log and the “Efficiency (log reduction)” value (S. aureus; 50 µg/mL, 670 nm, 97.65 J/cm^2, 5 min) is listed as 2.66 log.

In the case of `O=C([O-])c1c(Cl)c(Cl)c(Cl)c(Cl)c1-c1c2cc(I)c(=O)c(I)c-2oc2c(I)c([O-])c(I)cc12.[Na+].[Na+]` [Rose bengal], the “Efficiency (log reduction)” value (S. aureus; 0.31 µg/mL, 515 nm, 5.8 mW/cm^2, 37 J/cm^3) is given as 6 log and the “Efficiency (log reduction)” value (S. aureus; 0.62 µg/mL, 515 nm, 5.8 mW/cm^2, 18 J/cm^2) is given as 6 log.

Source: article PMC11478334, “Quaternized Curcumin Derivative—Synthesis, Physicochemical Characteristics, and Photocytotoxicity, Including Antibacterial Activity after Irradiation with Blue Light” (Molecules, 2024)
